Reference: PubChem BioAssay (NCI)
Values joined by “and” are separate entries in the source; they are usually repeats but may differ in a detail not shown here. Equal entries are not always repeated.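 In this assay, cells in 96-well plates receive the compound at five concentrations for 48 hours. Endpoints are linearly interpolated between the surrounding concentrations. Here, GI50 denotes the concentration required for 50% inhibition of growth. TGI is the concentration that stops growth completely.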

Columns and labels:
Experiment in all cases: inhibition of tumour cell growth, NCI panel, 48 h
[1] = tested on: HCC-2998 colon
[2] = tested on: HL-60(TB) leukemia
[3] = tested on: HT29 colon
[4] = tested on: IGROV1 ovarian
[5] = tested on: M14 melanoma
[6] = tested on: OVCAR-8 ovarian
[7] = tested on: KM12 colon
[8] = tested on: MCF7 breast
[9] = tested on: SK-OV-3 ovarian
[10] = tested on: EKVX NSCLC
[11] = tested on: RXF 393 renal
[12] = tested on: HOP-92 NSCLC

| SMILES | TGI [1] [µM] | TGI [2] [µM] | TGI [3] [µM] | TGI [4] [µM] | TGI [5] [µM] | TGI [6] [µM] | TGI [7] [µM] | TGI [8] [µM] | TGI [9] [µM] | TGI [10] [µM] | TGI [11] [µM] | TGI [12] [µM] | GI50 [2] | GI50 [11] |
| --- | --- | --- | --- | --- | --- | --- | --- | --- | --- | --- | --- | --- | --- | --- |
| Cc1cc(Cl)ccc1N=NC(=O)NNc1ccc(Cl)cc1C | 24.1 | 45.8 | 36.4 | 20.7 | 35.3 | 27.2 | – | – | – | – | – | – | – | – |
| O=C(CCCn1ccnc1[N+](=O)[O-])NCCn1ccnc1 | > 100 | > 100 | > 100 | > 100 | > 100 | > 100 | > 100 | > 100 | > 100 | – | – | – | – | – |
| S=C(Nc1cccc(Cl)c1)Nc1ccccn1 | – | > 100 | > 100 | > 100 | > 100 | > 100 | > 100 | > 100 | > 100 | > 100 | > 100 | – | – | – |
| CC1NC(/C(=C/c2ccccc2O)NC(=O)c2ccccc2)OC1=O (stereo not drawn) | > 50 | > 50 | > 50 | > 50 | > 50 | > 50 | > 50 | > 50 | > 50 | > 50 | – | 46.6 | – | – |
| CC1[C@@H](OCc2ccccc2)COC(=O)N1Cc1ccccc1 (stereo partly drawn) | – | – | > 100 | > 100 | > 100 | > 100 | > 100 | > 100 | > 100 | > 100 | – | 92.9 | – | – |
| Cc1c2c(n(CCc3ccccc3)c1C)NN=C(C#N)S2(=O)=O | > 100 | – | > 100 | > 100 | > 100 | > 100 | > 100 | > 100 | > 100 | > 100 | – | – | – | – |
| CCN(CC)Cc1cc(Nc2c3ccccc3nc3c2[nH]c2ccccc23)ccc1O | – | – | 2.01 | 4.49 | 3.11 | 3.11 | 4.66 | – | 6.83 | 6.32 | 2.77 | 3.46 | – | – |
| CSc1cc(Cl)c(C)cc1S(=O)(=O)NC(=O)NNc1ccc(F)c(Cl)c1 | > 100 | – | > 100 | > 100 | > 100 | > 100 | > 100 | > 100 | > 100 | > 100 | > 100 | – | – | – |
| COC(=O)c1c(C(=O)OC)c2cc(C(=O)c3ccccc3)ccn2c1Cl | > 100 | 54.2 | > 100 | > 100 | > 100 | > 100 | 72.8 | – | – | > 100 | 85 | – | – | – |
| COc1ccc(C2C(Cl)C(=O)N2NC(=O)Cc2ccccc2)cc1 (stereo not drawn) | > 100 | > 100 | > 100 | > 100 | > 100 | > 100 | > 100 | – | > 100 | > 100 | > 100 | – | – | – |
| CC(=O)Nc1ccc(C2[C@H]3C(=O)N(c4ccc(Cc5ccc(N6C(=O)[C@@H]7ON(c8ccccc8)C(c8ccc(NC(C)=O)cc8)[C@@H]7C6=O)cc5)cc4)C(=O)[C@H]3ON2c2ccccc2)cc1 (stereo partly drawn) | > 100 | > 100 | > 100 | > 100 | 79.8 | > 100 | > 100 | – | > 100 | > 100 | > 100 | – | – | – |
| CC(C)(C)[C@H]1CO[C@]2(C)[C@@H]3C[C@@H]3C(=O)N12 | > 100 | > 100 | > 100 | > 100 | > 100 | > 100 | > 100 | – | > 100 | > 100 | > 100 | > 100 | – | – |
| CC1=NN(C(=O)Cc2ccccc2)C(=O)/C1=C\C=C\c1ccccc1 | > 100 | > 100 | > 100 | – | > 100 | > 100 | > 100 | – | – | > 100 | – | – | – | – |
| CCOP(=O)(OCC)/C(C#N)=C/c1ccco1 | > 100 | > 100 | > 100 | > 100 | > 100 | > 100 | > 100 | – | > 100 | > 100 | – | > 100 | – | – |
| COC1OC(CO)C(O)C(OC(=O)c2cc(O)c(O)c(O)c2)C1OC(=O)c1cc(O)c(O)c(O)c1 (stereo not drawn) | – | > 100 | > 100 | > 100 | > 100 | > 100 | > 100 | > 100 | > 100 | > 100 | > 100 | – | – | – |
| Cc1ccc(S(=O)(=O)N2CCCCN(S(=O)(=O)c3ccc(C)cc3)Cc3ccccc3OCCOCCOc3c4cccc3Cc3cccc5c3OCCOCCOc3ccccc3CN(S(=O)(=O)c3ccc(C)cc3)CCCN(S(=O)(=O)c3ccc(C)cc3)Cc3ccccc3OCCOCCOc3c(cccc3C4)Cc3cccc(c3OCCOCCOc3ccccc3C2)C5)cc1 | > 100 | – | > 100 | > 100 | > 100 | > 100 | > 100 | > 100 | > 100 | > 100 | > 100 | > 100 | – | – |
| CC(=O)O[C@H]1C(=O)[C@@]2(C)[C@H]([C@H](OC(=O)C3CCCCC3)[C@]3(O)C[C@H](OC(=O)[C@H](O)[C@@H](NC(=O)C4CCCCC4)C4CCCCC4)C(C)=C1C3(C)C)[C@]1(OC(C)=O)CO[C@@H]1C[C@@H]2O | 0.27 | – | – | 6.77 | 1.2 | 5.12 | 5.53 | 4.36 | 19.2 | 25 | 0.555 | 4.72 | – | – |
| CC(=O)OC1COC(n2c(N)c(C#N)c(C)c(C#N)c2=S)C(OC(C)=O)C1OC(C)=O (stereo not drawn) | > 100 | > 100 | > 100 | > 100 | > 100 | > 100 | > 100 | > 100 | > 100 | – | > 100 | – | > 100 µM and 36.6 µM | 17.4 µM and 59.8 µM |
| N=C1C(=N)c2ccccc2-c2ccccc21 | 3.47 | 0.658 | 3.81 | 3.93 | 2.36 | – | 3.4 | 2.27 | 3.07 | 3.62 | 3.23 | – | – | – |
| Cc1cc(C)nc(Nc2nc3ccc([N+](=O)[O-])cc3[nH]2)n1 | > 100 | > 100 | > 100 | > 100 | > 100 | > 100 | > 100 | – | – | > 100 | – | > 100 | – | – |
| NC1CC(=O)c2cc(Br)sc21 (stereo not drawn) | > 100 | > 100 | > 100 | > 100 | > 100 | > 100 | > 100 | > 100 | > 100 | > 100 | > 100 | – | – | – |
